From patent publication US8471005B2 (Cephalon, Inc., priority 2008, dated 2013)
Like-named read-outs stand apart in the source and are kept apart here.

How the values were obtained:
ALK = molecular target: T1, ALK (Homo sapiens, UniProt Q9UM73); experiment: ALK Kinase Assay (ELISA/TRF, PLC-γ substrate); type: biochemical; settings: read-out: ALK Potency
T1 construct: host or cells: baculovirus expression system
Summary of the method: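 PLC-γ substrate coated at 10 μg/mL in TBS; reaction started with 30 ng/ml ALK, run 15 min at 37° C. Phosphoproduct detected by TRF with Eu-N1-labeled PT66 anti-phosphotyrosine antibody. IC50 from sigmoidal variable-slope fit of percent inhibition versus log concentration.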

JAK2 = molecular target: T2, JAK2 (Homo sapiens, UniProt O60674); experiment: Recombinant Human JAK2 Kinase Assay (TRF); type: biochemical; settings: read-out: JAK2 Potency
T2 construct: host or cells: baculovirus expression system
Summary of the method: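 TRF read-out: Eu-N1 PY100 anti-phosphotyrosine antibody detects product. Enzyme is baculovirus-expressed JAK2 at 15 ng/ml; substrate is a biotinyl 15-mer peptide bound to Neutravidin-coated wells. Buffer 20 mM HEPES pH 7.2, 0.2 μM ATP, 1 mM MnCl2, 0.1% BSA, 2.5% DMSO final; 20 min, RT.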

[1] = ALK kinase inhibition, 1 μM ATP
[2] = JAK2 kinase inhibition, 0.2 μM ATP

T1 sequence (Q9UM73 19-1620): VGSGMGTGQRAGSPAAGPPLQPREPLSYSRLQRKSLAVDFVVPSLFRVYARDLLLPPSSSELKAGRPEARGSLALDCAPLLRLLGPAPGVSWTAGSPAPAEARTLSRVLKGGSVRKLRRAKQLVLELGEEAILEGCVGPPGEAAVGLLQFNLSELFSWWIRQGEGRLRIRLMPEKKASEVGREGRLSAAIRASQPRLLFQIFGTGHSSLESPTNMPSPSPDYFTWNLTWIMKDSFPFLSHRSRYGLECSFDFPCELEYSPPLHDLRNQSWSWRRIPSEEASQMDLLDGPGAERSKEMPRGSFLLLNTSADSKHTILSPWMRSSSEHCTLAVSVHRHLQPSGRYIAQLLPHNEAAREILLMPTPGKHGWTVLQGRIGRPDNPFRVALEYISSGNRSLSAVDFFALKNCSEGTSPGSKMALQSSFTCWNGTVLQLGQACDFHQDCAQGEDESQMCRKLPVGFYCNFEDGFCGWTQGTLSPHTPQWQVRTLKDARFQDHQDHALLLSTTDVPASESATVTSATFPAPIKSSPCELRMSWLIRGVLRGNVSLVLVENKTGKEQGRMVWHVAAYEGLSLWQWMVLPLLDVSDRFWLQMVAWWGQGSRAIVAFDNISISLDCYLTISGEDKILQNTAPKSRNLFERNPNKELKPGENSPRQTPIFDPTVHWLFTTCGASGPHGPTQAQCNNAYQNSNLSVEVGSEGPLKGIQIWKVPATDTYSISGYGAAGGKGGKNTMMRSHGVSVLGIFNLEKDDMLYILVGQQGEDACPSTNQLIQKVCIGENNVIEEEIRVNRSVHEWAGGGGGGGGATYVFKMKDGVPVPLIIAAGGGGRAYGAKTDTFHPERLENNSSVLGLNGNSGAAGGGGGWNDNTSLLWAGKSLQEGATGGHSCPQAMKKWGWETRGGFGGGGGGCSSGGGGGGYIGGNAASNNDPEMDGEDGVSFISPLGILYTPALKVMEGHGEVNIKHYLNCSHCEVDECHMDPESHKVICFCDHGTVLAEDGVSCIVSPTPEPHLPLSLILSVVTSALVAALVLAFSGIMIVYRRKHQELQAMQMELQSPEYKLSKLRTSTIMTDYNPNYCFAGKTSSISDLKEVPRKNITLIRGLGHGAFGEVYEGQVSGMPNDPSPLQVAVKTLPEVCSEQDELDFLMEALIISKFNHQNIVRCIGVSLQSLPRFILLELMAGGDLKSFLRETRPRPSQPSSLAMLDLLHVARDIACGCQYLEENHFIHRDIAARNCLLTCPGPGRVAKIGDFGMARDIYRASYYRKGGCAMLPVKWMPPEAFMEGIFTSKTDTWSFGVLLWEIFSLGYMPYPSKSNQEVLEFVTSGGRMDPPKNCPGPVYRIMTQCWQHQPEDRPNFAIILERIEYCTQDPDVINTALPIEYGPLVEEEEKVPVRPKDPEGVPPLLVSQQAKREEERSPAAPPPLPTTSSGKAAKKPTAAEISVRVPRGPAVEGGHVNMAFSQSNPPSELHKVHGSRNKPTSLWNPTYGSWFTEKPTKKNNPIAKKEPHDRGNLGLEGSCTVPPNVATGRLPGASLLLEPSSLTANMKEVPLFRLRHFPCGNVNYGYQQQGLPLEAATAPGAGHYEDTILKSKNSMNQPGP
T2 sequence (O60674 whole entry): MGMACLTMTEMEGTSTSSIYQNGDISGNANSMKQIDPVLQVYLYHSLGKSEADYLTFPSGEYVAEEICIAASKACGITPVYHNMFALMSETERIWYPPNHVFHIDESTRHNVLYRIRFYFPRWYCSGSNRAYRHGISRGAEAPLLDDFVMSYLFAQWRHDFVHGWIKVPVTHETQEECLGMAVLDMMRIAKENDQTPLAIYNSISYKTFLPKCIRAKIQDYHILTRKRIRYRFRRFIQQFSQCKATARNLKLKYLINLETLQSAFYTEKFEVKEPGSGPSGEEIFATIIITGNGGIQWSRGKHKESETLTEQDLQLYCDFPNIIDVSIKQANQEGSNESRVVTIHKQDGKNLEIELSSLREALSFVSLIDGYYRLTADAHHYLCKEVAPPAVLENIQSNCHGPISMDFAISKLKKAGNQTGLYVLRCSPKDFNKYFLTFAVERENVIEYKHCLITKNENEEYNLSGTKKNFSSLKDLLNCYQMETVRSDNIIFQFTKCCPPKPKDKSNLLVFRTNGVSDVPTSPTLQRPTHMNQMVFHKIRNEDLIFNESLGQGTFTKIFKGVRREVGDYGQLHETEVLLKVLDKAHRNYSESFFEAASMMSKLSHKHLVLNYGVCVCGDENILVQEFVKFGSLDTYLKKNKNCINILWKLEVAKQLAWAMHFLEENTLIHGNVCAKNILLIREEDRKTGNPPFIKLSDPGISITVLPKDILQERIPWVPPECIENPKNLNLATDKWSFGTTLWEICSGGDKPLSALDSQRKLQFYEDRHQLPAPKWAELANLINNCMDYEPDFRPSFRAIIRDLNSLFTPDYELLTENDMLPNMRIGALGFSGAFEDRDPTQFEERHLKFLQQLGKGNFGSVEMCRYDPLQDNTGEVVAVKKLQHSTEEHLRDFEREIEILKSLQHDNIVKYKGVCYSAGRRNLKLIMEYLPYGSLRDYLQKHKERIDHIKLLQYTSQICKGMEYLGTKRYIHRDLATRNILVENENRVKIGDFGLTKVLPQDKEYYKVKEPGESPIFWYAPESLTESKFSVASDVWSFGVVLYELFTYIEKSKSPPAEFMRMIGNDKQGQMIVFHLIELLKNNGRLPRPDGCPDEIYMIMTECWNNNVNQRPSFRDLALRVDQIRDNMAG

IC50 (ALK; ALK Kinase Inhibition) [nM] | IC50 (JAK2; JAK2 Kinase Inhibition) [nM] | IC50 (ALK; [1]) [nM] | IC50 (JAK2; [2]) [nM] | Compound
< 100 | < 100 | – | – | CN(c1ccccc1-c1cc(Cl)c2cnc(Nc3ccc(C4CCN(CC(N)=O)CC4)cc3)nn12)S(C)(=O)=O [Example 1553, 2-[4-(4-{5-Chloro-7-[2-(methanesulfonyl-methyl-amino)-phenyl]-pyrrolo[2,1-f][1,2,4]triazin-2-ylamino}-phenyl)-piperidin-1-yl]-acetamide]
– | – | 1000 to 10000 | < 100 | CC(=O)Nc1cccc(Nc2ncc3ccc(-c4ccc[nH]4)n3n2)c1 [Example 1292, N-{3-[7-(1H-Pyrrol-2-yl)-pyrrolo[2,1-f][1,2,4]triazin-2-ylamino]-phenyl}-acetamide]
< 100 | 100 to 1000 | – | – | COc1cc(N2CCCC(N3CCN(C)CC3)C2)ccc1Nc1ncc2ccc(-c3ccccc3OC)n2n1 (stereo not shown) [Example 235, {2-Methoxy-4-[3-(4-methyl-piperazin-1-yl)-piperidin-1-yl]-phenyl}-[7-(2-methoxy-phenyl)-pyrrolo[2,1-f][1,2,4]triazin-2-yl]-amine]
100 to 1000 | < 100 | – | – | N-{2-tert-Butyl-5-[7-(5-chloro-2-methoxy-phenyl)-pyrrolo[2,1-f][1,2,4]triazin-2-ylamino]-phenyl}-acetamide [Example 305]
> 10000 | < 100 | – | – | COc1cc(Nc2ncc3ccc(-c4cccc(Cl)c4)n3n2)cc(OC)c1 [Example 156, [7-(3-Chloro-phenyl)-pyrrolo[2,1-f][1,2,4]triazin-2-yl]-(3,5-dimethoxy-phenyl)-amine]
< 100 | < 100 | – | – | COc1ccc(-c2ccc3cnc(Nc4ccc(N5CCN(C)CC5)cc4OC)nn23)cn1 [Example 73, [2-Methoxy-4-(4-methyl-piperazin-1-yl)-phenyl]-[7-(6-methoxy-pyridin-3-yl)-pyrrolo[2,1-f][1,2,4]triazin-2-yl]-amine]
100 to 1000 | < 100 | – | – | Cc1cc(-c2ccc(S(C)(=O)=O)cc2)n2nc(Nc3ccc(N4CCN(C)CC4)cc3)ncc12 [Example 108, [7-(4-Methanesulfonyl-phenyl)-5-methyl-pyrrolo[2,1-f][1,2,4]triazin-2-yl]-[4-(4-methyl-piperazin-1-yl)-phenyl]-amine]
100 to 1000 | 1000 to 10000 | – | – | COc1cc(N2CCN(C)CC2)ccc1Nc1ncc2cc3ccccc3n2n1 [Example 267, [2-Methoxy-4-(4-methyl-piperazin-1-yl)-phenyl]-[1,2,4]triazino[1,6-a]indol-2-yl-amine]
1000 to 10000 | < 100 | – | – | CC(=O)Nc1cccc(Nc2ncc3ccc(-c4cccc(N5CCCS5(=O)=O)c4)n3n2)c1 [Example 1508, N-[3-({7-[3-(1,1-Dioxido-1,2-thiazolidin-2-yl)phenyl]pyrrolo[2,1-f][1,2,4]triazin-2-yl}amino)phenyl]acetamide]
– | – | 1000 to 10000 | < 100 | CS(=O)(=O)c1cccc(-c2ccc3cnc(Nc4ccc(CN5CCS(=O)(=O)CC5)cc4)nn23)c1 [Example 1049, [4-(1,1-Dioxo-1$1(6)-thiomorpholin-4-ylmethyl)-phenyl]-[7-(3-methanesulfonyl-phenyl)-pyrrolo[2,1-f][1,2,4]triazin-2-yl]-amine]
100 to 1000 | < 100 | – | – | CS(=O)(=O)c1ccc(-c2ccc3cnc(Nc4ccc(C5CCNCC5)cc4)nn23)cc1 [Example 1571, [7-(4-Methanesulfonyl-phenyl)-pyrrolo[2,1-f][1,2,4]triazin-2-yl]-(4-piperidin-4-yl-phenyl)-amine]
– | – | < 100 | 100 to 1000 | COc1cc(N2CCN(C[C@@H](O)CO)CC2)ccc1Nc1ncc2ccc(-c3cc(Cl)ccc3OC)n2n1 [Example 757, (R)-3-(4-{4-[7-(5-Chloro-2-methoxy-phenyl)-pyrrolo[2,1-f][1,2,4]triazin-2-ylamino]-3-methoxy-phenyl}-piperazin-1-yl)-propane-1,2-diol]
– | – | > 10000 | 100 to 1000 | CC(=O)N1CCc2ccc(Nc3ncc4ccc(-c5cccc(C(=O)NC(C)(C)C)c5)n4n3)cc21 [Example 887, 3-[2-(1-Acetyl-2,3-dihydro-1H-indol-6-ylamino)-pyrrolo[2,1-f][1,2,4]triazin-7-yl]-N-tert-butyl-benzamide]
– | – | 100 to 1000 | < 100 | CS(=O)(=O)c1cccc(-c2ccc3cnc(Nc4ccc(C5=CCN(CC(N)=O)CC5)c(C(F)(F)F)c4)nn23)c1 [Example 951, 2-(4-{4-[7-(3-Methanesulfonyl-phenyl)-pyrrolo[2,1-f][1,2,4]triazin-2-ylamino]-2-trifluoromethyl-phenyl}-3,6-dihydro-2H pyridin-1-yl) acetamide]
– | – | 100 to 1000 | < 100 | CC(=O)Nc1cc(Nc2ncc3ccc(-c4cccc(S(=O)(=O)NC(C)(C)C)c4)n3n2)ccc1Cl [Example 888, N-{5-[7-(3-tert-Butylsulfamoyl-phenyl)-pyrrolo[2,1-f][1,2,4]triazin-2-ylamino]-2-chloro-phenyl}-acetamide]
1000 to 10000 | < 100 | – | – | COc1ccc(Cl)cc1-c1ccc2cnc(Nc3ccc(N4CCCC4)cc3)nn12 [Example 168, [7-(5-Chloro-2-methoxy-phenyl)-pyrrolo[2,1-f][1,2,4]triazin-2-yl]-(4-pyrrolidin-1-yl-phenyl)-amine]
– | – | 1000 to 10000 | < 100 | CN1CCN(C)C(c2ccc(Nc3ncc4ccc(-c5cccc(S(=O)(=O)NC(C)(C)C)c5)n4n3)cc2)C1=O (stereo not shown) [Example 1074, N-tert-Butyl-3-{2-[4-(1,4-dimethyl-3-oxo-piperazin-2-yl)-phenylamino]-pyrrolo[2,1-f][1,2,4]triazin-7-yl}-benzene sulfonamide]
– | – | 1000 to 10000 | < 100 | COc1ccc(-c2ccc3cnc(Nc4ccc5c(c4)COCCN5C)nn23)cn1 [Example 637, [7-(6-Methoxy-pyridin-3-yl)-pyrrolo[2,1-f][1,2,4]triazin-2-yl]-(1-methyl-1,2,3,5-tetrahydro-benzo[e][1,4]oxazepin-7-yl)-amine]
– | – | 100 to 1000 | < 100 | CN1CCC(c2ccc(Nc3ncc4ccc(-c5cccc(S(=O)(=O)N6CCCCC6)c5)n4n3)cc2)CC1 [Example 905, [4-(1-Methyl-piperidin-4-yl)-phenyl]-{7-[3-(piperidine-1-sulfonyl)-phenyl]-pyrrolo[2,1-f][1,2,4]triazin-2-yl}-amine]
– | – | > 10000 | < 100 | COc1ccc(-c2ccc3cnc(Nc4cccc(C5C(=O)N(C)CCN5C)c4)nn23)cn1 (stereo not shown) [Example 1081, 3-{3-[7-(6-Methoxy-pyridin-3-yl)-pyrrolo[2,1-f][1,2,4]triazin-2-ylamino]-phenyl}-1,4-dimethyl-piperazin-2-one]
> 10000 | < 100 | – | – | COc1cccc(-c2ccc3cnc(Nc4ccc(N5CCOCC5)cc4)nn23)c1 [Example 422, [7-(3-Methoxy-phenyl)-pyrrolo[2,1-f][1,2,4]triazin-2-yl]-(4-morpholin-4-yl-phenyl)-amine]
100 to 1000 | < 100 | – | – | CS(=O)(=O)Nc1ccc(-c2ccc3cnc(Nc4cccc(N5CCOCC5)c4)nn23)cc1 [Example 182, N-{4-[2-(3-Morpholin-4-yl-phenylamino)-pyrrolo[2,1-f][1,2,4]triazin-7-yl]-phenyl}-methanesulfonamide]
– | – | < 100 | < 100 | COc1cc(C2CCNCC2O)ccc1Nc1ncc2ccc(-c3cccc4c3OCC4)n2n1 (stereo not shown) [Example 718, 4-{4-[7-(2,3-Dihydro-benzofuran-7-yl)-pyrrolo[2,1-f][1,2,4]triazin-2-ylamino]-3-methoxy-phenyl}-piperidin-3-ol]
100 to 1000 | < 100 | – | – | CS(=O)(=O)Nc1ccc(-c2ccc3cnc(Nc4ccc(N5CCOCC5)cc4)nn23)cc1 [Example 200, N-{4-[2-(4-Morpholin-4-yl-phenylamino)-pyrrolo[2,1-f][1,2,4]triazin-7-yl]-phenyl}-methanesulfonamide]
– | – | 1000 to 10000 | < 100 | CC(=O)Nc1cccc(Nc2ncc3ccc(-c4cccc(C(=O)NC(C)(C)C)c4)n3n2)c1 [Example 886, 3-[2-(3-Acetylamino-phenylamino)-pyrrolo[2,1-f][1,2,4]triazin-7-yl]-N-tert-butyl-benzamide]
– | – | 1000 to 10000 | < 100 | CN1CCN(c2ccc(Nc3ncc4ccc(-c5ccccc5OCC(=O)OC(C)(C)C)n4n3)cc2)CC1 [Example 1173, (2-{2-[4-(4-Methyl-piperazin-1-yl)-phenylamino]-pyrrolo[2,1-f][1,2,4]triazin-7-yl}-phenoxy)-acetic acid tert-butyl ester]
> 10000 | < 100 | – | – | CS(=O)(=O)c1ccc(-c2ccc3cnc(Nc4ccc(N5CCOCC5)c(F)c4)nn23)cc1 [Example 189, (3-Fluoro-4-morpholin-4-yl-phenyl)-[7-(4-methanesulfonyl-phenyl)-pyrrolo[2,1-f][1,2,4]triazin-2-yl]-amine]
100 to 1000 | < 100 | – | – | Cc1cc(N2CCN(C)CC2)ccc1Nc1ncc2ccc(-c3ccc(S(C)(=O)=O)cc3)n2n1 [Example 67, [7-(4-Methanesulfonyl-phenyl)-pyrrolo[2,1-f][1,2,4]triazin-2-yl]-[2-methyl-4-(4-methyl-piperazin-1-yl)-phenyl]-amine]
– | – | 100 to 1000 | 100 to 1000 | COc1cc(C2(O)CCN(C(=O)OC(C)(C)C)CC2)ccc1Nc1ncc2ccc(-c3ccccc3N(C)S(C)(=O)=O)n2n1 [Example 741, 4-Hydroxy-4-(4-{7-[2-(methanesulfonyl-methyl-amino)-phenyl]-pyrrolo[2,1-f][1,2,4]triazin-2-ylamino}-3-methoxy-phenyl)-piperidine-1-carboxylic acid tert-butyl ester]
